From article PMC6956804, “Potent antibacterial activity of MSI-1 derived from the magainin 2 peptide against drug-resistant bacteria” (Theranostics, 2020)
Peptide text beside a SMILES is read from it.

Columns and labels:
PRSP P112 = assay: microbe, parasite or virus in culture; format: cell-based, Streptococcus pneumoniae; conditions: PRSP P112, clinical strain
Experimental: (§1) Bacterial strains were purchased from the American Type Culture Collection (ATCC). All clinical strains were isolated from human clinical specimens by the Medical Laboratory Center of Zhongda Hospital (Nanjing, Jiangsu, China). Ndm-1, tem-1, ctx-m-1, shv-1 -carrying bacteria were constructed as previously described. The recombinant bacteria carrying drug-resistant genes were prepared in LB nutrient and induced by IPTG (1 mM) for 4 h before text. Other bacterial strains were respectively prepared in MHB and Columbia Blood Agar Base.
(§2) A standard micro-broth serial dilution assay was used to measure MIC of peptides. MIC was obtained by a microplate reader at 600 nm. MBC was determined as previously described.

PISP F34 = assay: microbe, parasite or virus in culture; format: cell-based, Streptococcus pneumoniae; conditions: PISP F34, clinical strain
Experimental: as §1, §2

PISP F22 = assay: microbe, parasite or virus in culture; format: cell-based, Streptococcus pneumoniae; conditions: PISP F22, clinical strain
Experimental: as §1, §2

PRSP P105 = assay: microbe, parasite or virus in culture; format: cell-based, Streptococcus pneumoniae; conditions: PRSP P105, clinical strain
Experimental: as §1, §2

MRSA M101 = assay: microbe, parasite or virus in culture; format: cell-based, Staphylococcus aureus; conditions: MRSA M101, clinical strain
Experimental: as §1, §2

MSSA D1 = assay: microbe, parasite or virus in culture; format: cell-based, Staphylococcus aureus; conditions: MSSA D1, clinical strain
Experimental: as §1, §2

MRSA M108 = assay: microbe, parasite or virus in culture; format: cell-based, Staphylococcus aureus; conditions: MRSA M108, clinical strain
Experimental: as §1, §2

MSSA D4 = assay: microbe, parasite or virus in culture; format: cell-based, Staphylococcus aureus; conditions: MSSA D4, clinical strain
Experimental: as §1, §2

[1] = system: K. peneumoniae B4 (ESBLs (+)); assay: organism not typed; format: cell-based; conditions: K. peneumoniae B4 (ESBLs (+)), clinical strain
Experimental: as §1, §2

[2] = system: K. peneumoniae B9 (ESBLs (+)); assay: organism not typed; format: cell-based; conditions: K. peneumoniae B9 (ESBLs (+)), clinical strain
Experimental: as §1, §2

[3] = system: K. peneumoniae B6 (ESBLs (+)); assay: organism not typed; format: cell-based; conditions: K. peneumoniae B6 (ESBLs (+)), clinical strain
Experimental: as §1, §2

K. peneumoniae ATCC4352 = assay: organism not typed; format: cell-based
Experimental: as §1, §2

G- and G+ bacteria = assay: Antimicrobial activity, summary over the strains; format: cell-based; conditions: both G- and G+ bacteria, summary of Table 1
Experimental: as §2

MSSE E8 = assay: microbe, parasite or virus in culture; format: cell-based, Staphylococcus epidermidis; conditions: MSSE E8, clinical strain
Experimental: as §1, §2

MRSE N104 = assay: microbe, parasite or virus in culture; format: cell-based, Staphylococcus epidermidis; conditions: MRSE N104, clinical strain
Experimental: as §1, §2

MSSE E3 = assay: microbe, parasite or virus in culture; format: cell-based, Staphylococcus epidermidis; conditions: MSSE E3, clinical strain
Experimental: as §1, §2

MRSE N109 = assay: microbe, parasite or virus in culture; format: cell-based, Staphylococcus epidermidis; conditions: MRSE N109, clinical strain
Experimental: as §1, §2

E. coli ATCC25922 = assay: microbe, parasite or virus in culture; format: cell-based; conditions: micro-broth serial dilution, 600 nm
Experimental: as §1, §2

E. faecalis = assay: microbe, parasite or virus in culture; format: cell-based
Experimental: as §1, §2

E. coli A5 (ESBLs (+)) = assay: microbe, parasite or virus in culture; format: cell-based; conditions: E. coli A5 (ESBLs (+)), clinical strain
Experimental: as §1, §2

Shigella flexneri = assay: microbe, parasite or virus in culture; format: cell-based
Experimental: as §1, §2

E. cloacae S3 (AmpC (+)) = assay: microbe, parasite or virus in culture; format: cell-based; conditions: E. cloacae S3 (AmpC (+)), clinical strain
Experimental: as §1, §2

E. faecium = assay: microbe, parasite or virus in culture; format: cell-based
Experimental: as §1, §2

E. coli A2 (ESBLs (+)) = assay: microbe, parasite or virus in culture; format: cell-based; conditions: E. coli A2 (ESBLs (+)), clinical strain
Experimental: as §1, §2

P. aeruginosa ATCC27853 = assay: microbe, parasite or virus in culture; format: cell-based
Experimental: as §1, §2

S. aureus ATCC25923 = assay: microbe, parasite or virus in culture; format: cell-based
Experimental: as §1, §2

E. coli A9 (ESBLs (+)) = assay: microbe, parasite or virus in culture; format: cell-based; conditions: E. coli A9 (ESBLs (+)), clinical strain
Experimental: as §1, §2

[4] = system: P. aeruginosa T6 (ESBLs (+)); assay: microbe, parasite or virus in culture; format: cell-based; conditions: P. aeruginosa T6 (ESBLs (+)), clinical strain
Experimental: as §1, §2

[5] = system: P. aeruginosa T1 (ESBLs (+)); assay: microbe, parasite or virus in culture; format: cell-based; conditions: P. aeruginosa T1 (ESBLs (+)), clinical strain
Experimental: as §1, §2

[6] = system: P. aeruginosa T8 (ESBLs (+)); assay: microbe, parasite or virus in culture; format: cell-based; conditions: P. aeruginosa T8 (ESBLs (+)), clinical strain
Experimental: as §1, §2

E. cloacae S1 (AmpC (+)) = assay: microbe, parasite or virus in culture; format: cell-based; conditions: E. cloacae S1 (AmpC (+)), clinical strain
Experimental: as §1, §2

S. pneumoniae ATCC 49619 = assay: microbe, parasite or virus in culture; format: cell-based
Experimental: as §1, §2

S. epidermidis ATCC35984 = assay: microbe, parasite or virus in culture; format: cell-based
Experimental: as §1, §2

CC[C@H](C)[C@H](NC(=O)[C@@H](N)Cc1c[nH]c2ccccc12)C(=O)N[C@@H](CCCNC(=N)N)C(=O)N[C@@H](CCCCN)C(=O)N[C@@H](Cc1ccccc1)C(=O)N[C@@H](CC(C)C)C(=O)N[C@@H](CCCCN)C(=O)N[C@@H](CCCNC(=N)N)C(=O)N[C@H](C(=O)N[C@@H](CCCCN)C(=O)N[C@@H](CCCCN)C(=O)N[C@@H](Cc1ccccc1)C(=O)NCC(N)=O)C(C)C [MSI-4] (H-WIRKFLKRVKKFG-NH2)
32 µg/mL: MIC (PRSP P112) | MIC (PISP F22) | MIC (MRSA M101) | MIC (MSSA D1) | MIC [3] | MIC (K. peneumoniae ATCC4352) | MIC (MRSE N104) | MIC (MRSE N109) | MIC (E. faecalis) | MIC (E. cloacae S3 (AmpC (+))) | MIC (E. coli A2 (ESBLs (+))) | MIC (P. aeruginosa ATCC27853) | MIC (E. coli A9 (ESBLs (+))) | MIC [4]
64 µg/mL: MIC (PRSP P105) | MIC (MRSA M108) | MIC [1] | MIC [6]
16 µg/mL: MIC (PISP F34) | MIC (MSSA D4) | MIC [2] | MIC (MSSE E8) | MIC (MSSE E3) | MIC (E. coli ATCC25922) | MIC (E. coli A5 (ESBLs (+))) | MIC (Shigella flexneri) | MIC (E. faecium) | MIC (S. aureus ATCC25923) | MIC [5] | MIC (E. cloacae S1 (AmpC (+))) | MIC (S. pneumoniae ATCC 49619) | MIC (S. epidermidis ATCC35984)
16 to 64 µg/mL: MIC (range over strains) (G- and G+ bacteria)
